Structures are written as SMILES. Square brackets hold non-standard residues; d marks the D form. Peptide text beside a SMILES is read from it. * marks the point of attachment. DOTA(Lu)NH(CH2)6NHCOCH2 = O=C(CN1CCN2CCN3CCN(CC1)CC(=O)[O][Lu]([O]C(=O)C2)[O]C(=O)C3)NCCCCCCNC(=O)C*; X6 = O=C(CN1CCN2CCN3CCN(CC1)CC(=O)[O][Lu]([O]C(=O)C2)[O]C(=O)C3)NCCOCCOCCOCCNC(=O)C*; dNMeW = CN[C@H](Cc1c[nH]c2ccccc12)C(=O)O; NMehCys = CN[C@@H](CCS)C(=O)O

SSTR2, sequence (P30874 whole entry): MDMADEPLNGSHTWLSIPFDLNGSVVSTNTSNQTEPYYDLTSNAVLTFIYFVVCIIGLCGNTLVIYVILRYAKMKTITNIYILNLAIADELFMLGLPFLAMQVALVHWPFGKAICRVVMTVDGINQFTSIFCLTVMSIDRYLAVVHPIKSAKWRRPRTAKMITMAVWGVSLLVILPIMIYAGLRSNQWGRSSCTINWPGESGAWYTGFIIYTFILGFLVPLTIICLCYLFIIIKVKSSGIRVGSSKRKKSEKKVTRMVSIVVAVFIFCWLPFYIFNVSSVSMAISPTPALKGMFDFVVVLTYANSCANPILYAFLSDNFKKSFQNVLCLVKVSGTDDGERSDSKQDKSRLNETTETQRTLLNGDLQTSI

This experiment concerns the target SSTR2 (Homo sapiens, UniProt P30874). The experiment in a line: SSTR binding affinity by radioligand binding competition assay ([125I]-Tyr11-Somatostatin, membrane extracts). Particulars: radioligand competition, [125I]-Tyr11-Somatostatin 0.1 nM, membrane extracts; Ki from IC50 by Cheng Prusoff; read-out: SSTR2 Ki.
On to `C[C@@H](O)[C@@H]1NC(=O)[C@H](CCCCN)NC(=O)[C@@H](Cc2c[nH]c3ccccc23)NC(=O)[C@H](Cc2ccc(O)cc2)NC(=O)[C@H](CCSCC(=O)NCCCCCCNC(=O)CCC(C(=O)O)N2CCN3CCN4CCN(CC2)CC(=O)[O][Lu]([O]C(=O)C4)[O]C(=O)C3)N(C)C(=O)[C@H](Cc2ccccc2)NC1=O` (stereo partly shown) [RB-0005274], for which the Ki is less than 1 nM. Under `C[C@@H](O)[C@@H]1NC(=O)[C@H](CCCCN)NC(=O)[C@@H](Cc2c[nH]c3ccccc23)NC(=O)[C@H](Cc2ccc(O)cc2)NC(=O)[C@H](CCSCC(=O)N[C@H](CCCCNC(=O)CN2CCN3CCN4CCN(CC2)CC(=O)[O][Lu]([O]C(=O)C3)[O]C(=O)C4)C(=O)O)N(C)C(=O)[C@H](Cc2ccccc2)NC1=O` [RB-0005276] stands 1 to 3.33 nM; under `C[C@@H](O)[C@@H]1NC(=O)[C@H](CCCCN)NC(=O)[C@@H](Cc2c[nH]c3ccccc23)NC(=O)[C@H](Cc2ccc(O)cc2)NC(=O)[C@H](CCSCC(=O)NCCCC[C@@H](NC(=O)CN2CCN3CCN4CCN(CC2)CC(=O)[O][Lu]([O]C(=O)C3)[O]C(=O)C4)C(=O)O)N(C)C(=O)[C@H](Cc2ccccc2)NC1=O` [RB-0005278], 1 to 3.33 nM. Take `C[C@@H](O)[C@@H]1NC(=O)[C@H](CCCCN)NC(=O)[C@@H](Cc2c[nH]c3ccccc23)NC(=O)[C@H](Cc2ccc(O)cc2)NC(=O)[C@H](CCSCC(=O)NCCOCCOCCOCCNC(=O)CN2CCN3CCN4CCN(CC2)CC(=O)[O][Lu]([O]C(=O)C3)[O]C(=O)C4)N(C)C(=O)[C@H](Cc2ccccc2)NC1=O` [RB-0005284]: the inhibitory constant (Ki) was less than 1 nM. Then `C[C@@H](O)[C@@H]1NC(=O)[C@H](CCCCN)NC(=O)[C@@H](Cc2c[nH]c3ccccc23)NC(=O)[C@H](Cc2ccc(O)cc2)NC(=O)[C@H](CCSCC(=O)NCCOCCOCCOCCNC(=O)CN2CCN3CCN4CCN(CC2)CC(=O)[O][Lu]([O]C(=O)C3)[O]C(=O)C4)N(C)C(=O)CNC1=O` [RB-0005286] (cyclo(G[NMehCys](X6)Y[dW]KT)), with 10 to 33.3 nM. Then `C[C@@H](O)[C@@H]1NC(=O)[C@H](CCCCN)NC(=O)[C@@H](Cc2c[nH]c3ccccc23)N(C)C(=O)[C@H](Cc2ccc(O)cc2)NC(=O)[C@H](CCSCC(=O)NCCCCCCNC(=O)CN2CCN3CCN4CCN(CC2)CC(=O)[O][Lu]([O]C(=O)C3)[O]C(=O)C4)N(C)C(=O)[C@H](Cc2ccccc2)NC1=O` [RB-0005330] (cyclo(F[NMehCys](DOTA(Lu)NH(CH2)6NHCOCH2)Y[dNMeW]KT)), with less than 1 nM.

Consider `C[C@@H](O)[C@@H]1NC(=O)[C@H](CCCCN)NC(=O)[C@@H](Cc2c[nH]c3ccccc23)NC(=O)CNC(=O)[C@H](CCSCC(=O)NCCCCCCNC(=O)CN2CCN3CCN4CCN(CC2)CC(=O)[O][Lu]([O]C(=O)C3)[O]C(=O)C4)N(C)C(=O)[C@H](Cc2ccccc2)NC1=O` [RB-0005694] (cyclo(F[NMehCys](DOTA(Lu)NH(CH2)6NHCOCH2)G[dW]KT)), for which the Ki was 1 to 3.33 nM.

Turning to `C[C@@H]1NC(=O)[C@H](CCSCC(=O)NCCCCCCNC(=O)CN2CCN3CCN4CCN(CC2)CC(=O)[O][Lu]([O]C(=O)C3)[O]C(=O)C4)N(C)C(=O)[C@H](Cc2ccccc2)NC(=O)[C@H]([C@@H](C)O)NC(=O)[C@H](CCCCN)NC(=O)[C@@H](Cc2c[nH]c3ccccc23)NC1=O` [RB-0005696] (cyclo(A[dW]KTF[NMehCys](DOTA(Lu)NH(CH2)6NHCOCH2))), the inhibition constant Ki lay in the range of 10 to 33.3 nM. Then `C[C@@H](O)[C@@H]1NC(=O)[C@H](CCCCN)NC(=O)[C@@H](Cc2c[nH]c3ccccc23)NC(=O)[C@H](Cc2ccc(O)cc2)NC(=O)[C@H](CCNC(=O)CCCCCNC(=O)CN2CCN3CCN4CCN(CC2)CC(=O)[O][Lu]([O]C(=O)C3)[O]C(=O)C4)N(C)C(=O)[C@H](Cc2ccccc2)NC1=O` [RB-0005717], with 10 to 33.3 nM; and `C[C@@H](O)[C@@H]1NC(=O)[C@H](CCCCN)NC(=O)[C@@H](Cc2c[nH]c3ccccc23)NC(=O)[C@H](Cc2ccc(O)cc2)NC(=O)[C@H](CNC(=O)CCCCCNC(=O)CN2CCN3CCN4CCN(CC2)CC(=O)[O][Lu]([O]C(=O)C3)[O]C(=O)C4)N(C)C(=O)[C@H](Cc2ccccc2)NC1=O` [RB-0005728], with 3.33 to 10 nM.

Source of the values: US20250222146A1, “Radiopharmaceuticals Targeting Somatostatin Receptor 2 and Uses Thereof” (RayzeBio, Inc., priority 2023, published 2025).
